Measurements from ChEMBL document CHEMBL3232945 (Eur J Med Chem, 2014).

How the values were obtained:
Rattus norvegicus [1] = assay: Toxicity in anesthetized-normotensive Wistar rat assessed as heart rate at 40 mg/kg, ip after 45 mins (reference value: 316.82 +/- 8.452 bpm); assay type: organism-based; parameters: dose 40 mg/kg, route intraperitoneal; conditions: in vivo, 0.75 h
Rattus norvegicus [2] = assay: Toxicity in anaesthetized-Wistar rat assessed as P-Q ECG interval at 40 mg/kg, ip after 45 mins (reference value: 52.5 +/- 0.780 ms); assay type: organism-based; parameters: dose 40 mg/kg, route intraperitoneal; conditions: in vivo, 0.75 h
Rattus norvegicus [3] = assay: Toxicity in anaesthetized-Wistar rat assessed as QRS ECG interval at 40 mg/kg, ip after 15 mins (reference value: 18.9 +/- 1.563 ms); assay type: organism-based; parameters: dose 40 mg/kg, route intraperitoneal; conditions: in vivo, 0.25 h
Rattus norvegicus [4] = assay: Toxicity in anaesthetized-Wistar rat assessed as P-Q ECG interval at 40 mg/kg, ip measured immediately at 0 min (reference value: 52.4 +/- 0.927 ms); assay type: organism-based; parameters: dose 40 mg/kg, route intraperitoneal; conditions: in vivo, 0 h
Rattus norvegicus [5] = assay: Toxicity in anaesthetized-Wistar rat assessed as QRS ECG interval at 40 mg/kg, ip after 30 mins (reference value: 19.9 +/- 1.393 ms); assay type: organism-based; parameters: dose 40 mg/kg, route intraperitoneal; conditions: in vivo, 0.5 h
Rattus norvegicus [6] = assay: Toxicity in […] normotensive Wistar rat assessed as mean arterial pressure at 40 mg/kg, ip after 45 mins (reference value: 94.83 +/- 0.943 mmHg); assay type: organism-based, Artery; parameters: dose 40 mg/kg, route intraperitoneal; conditions: in vivo, 0.75 h
Rattus norvegicus [7] = assay: Toxicity in anaesthetized-Wistar rat assessed as QRS ECG interval at 40 mg/kg, ip measured immediately at 0 min (reference value: 19.6 +/- 1.142 ms); assay type: organism-based; parameters: dose 40 mg/kg, route intraperitoneal; conditions: in vivo, 0 h
Rattus norvegicus [8] = assay: Toxicity in anaesthetized-Wistar rat assessed as Q-T ECG interval at 40 mg/kg, ip after 60 mins (reference value: 79.7 +/- 0.965 ms); assay type: organism-based; parameters: dose 40 mg/kg, route intraperitoneal; conditions: in vivo, 1 h
Rattus norvegicus [9] = assay: Antihypertensive activity in Wistar rat assessed as mean arterial pressure at 40 mg/kg, ip after 30 mins (reference value: 194.72 +/- 1.002 mmHg); assay type: functional, Artery; conditions: route intraperitoneal
Rattus norvegicus [10] = assay: Toxicity in anesthetized-normotensive Wistar rat assessed as heart rate at 40 mg/kg, ip measured immediately at 0 min (reference value: 316.62 +/- 9.643 bpm); assay type: organism-based; parameters: dose 40 mg/kg, route intraperitoneal; conditions: in vivo, 0 h
Rattus norvegicus [11] = assay: Toxicity in […] normotensive Wistar rat assessed as mean arterial pressure at 40 mg/kg, ip measured immediately at 0 min (reference value: 94.21 +/- 2.065 mmHg); assay type: organism-based, Artery; parameters: dose 40 mg/kg, route intraperitoneal; conditions: in vivo, 0 h
Rattus norvegicus [12] = assay: Antihypertensive activity in Wistar rat assessed as mean arterial pressure at 40 mg/kg, ip after 15 mins (reference value: 195.68 +/- 1.623 mmHg); assay type: functional, Artery; conditions: route intraperitoneal
Rattus norvegicus [13] = assay: Toxicity in anaesthetized-Wistar rat assessed as QRS ECG interval at 40 mg/kg, ip after 45 mins (reference value: 20.2 +/- 1.348 ms); assay type: organism-based; parameters: dose 40 mg/kg, route intraperitoneal; conditions: in vivo, 0.75 h
Rattus norvegicus [14] = assay: Antihypertensive activity in Wistar rat assessed as mean arterial pressure at 40 mg/kg, ip after 60 mins (reference value: 195.11 +/- 0.531 mmHg); assay type: functional, Artery; conditions: route intraperitoneal
Rattus norvegicus [15] = assay: Antiarrhythmic activity in barium chloride-induced Wistar rat assessed as increase in mortality time at 40 mg/kg, ip administered 60 mins before barium chloride challenge (reference value: 682.8 +/- 9.656 secs); assay type: functional, Heart; conditions: route intraperitoneal
Rattus norvegicus [16] = assay: Toxicity in anaesthetized-Wistar rat assessed as P-Q ECG interval at 40 mg/kg, ip after 60 mins (reference value: […] +/- 0.924 ms); assay type: organism-based; parameters: dose 40 mg/kg, route intraperitoneal; conditions: in vivo, 1 h
Rattus norvegicus [17] = assay: Toxicity in anaesthetized-Wistar rat assessed as QRS ECG interval at 40 mg/kg, ip after 60 mins (reference value: 19.3 +/- 0.873 ms); assay type: organism-based; parameters: dose 40 mg/kg, route intraperitoneal; conditions: in vivo, 1 h
Rattus norvegicus [18] = assay: Toxicity in anaesthetized-Wistar rat assessed as Q-T ECG interval at 40 mg/kg, ip after 45 mins (reference value: 78.8 +/- 0.927 ms); assay type: organism-based; parameters: dose 40 mg/kg, route intraperitoneal; conditions: in vivo, 0.75 h
Rattus norvegicus [19] = assay: Antihypertensive activity in Wistar rat assessed as mean arterial pressure at 40 mg/kg, ip after 45 mins (reference value: 193.96 +/- 0.865 mmHg); assay type: functional, Artery; conditions: route intraperitoneal
Rattus norvegicus [20] = assay: Toxicity in […] normotensive Wistar rat assessed as mean arterial pressure at 40 mg/kg, ip after 15 mins (reference value: 93.81 +/- 1.543 mmHg); assay type: organism-based, Artery; parameters: dose 40 mg/kg, route intraperitoneal; conditions: in vivo, 0.25 h
Rattus norvegicus [21] = assay: Toxicity in […] normotensive Wistar rat assessed as mean arterial pressure at 40 mg/kg, ip after 30 mins (reference value: 94.68 +/- 1.213 mmHg); assay type: organism-based, Artery; parameters: dose 40 mg/kg, route intraperitoneal; conditions: in vivo, 0.5 h
Rattus norvegicus [22] = assay: Antiarrhythmic activity in barium chloride-induced Wistar rat assessed as increase in appearance time of arrhythmia at 40 mg/kg, ip administered 60 mins before barium chloride challenge (reference value: 129.4 +/- 4.373 sec); assay type: functional, Heart; conditions: route intraperitoneal
Rattus norvegicus [23] = assay: Toxicity in anaesthetized-Wistar rat assessed as Q-T ECG interval at 40 mg/kg, ip after 30 mins (reference value: 78.3 +/- 0.860 ms); assay type: organism-based; parameters: dose 40 mg/kg, route intraperitoneal; conditions: in vivo, 0.5 h
Rattus norvegicus [24] = assay: Toxicity in anesthetized-normotensive Wistar rat assessed as heart rate at 40 mg/kg, ip after 60 mins (reference value: 314.96 +/- 9.442 bpm); assay type: organism-based; parameters: dose 40 mg/kg, route intraperitoneal; conditions: in vivo, 1 h
Rattus norvegicus [25] = assay: Toxicity in anaesthetized-Wistar rat assessed as Q-T ECG interval at 40 mg/kg, ip measured immediately at 0 min (reference value: 78.8 +/- 1.030 ms); assay type: organism-based; parameters: dose 40 mg/kg, route intraperitoneal; conditions: in vivo, 0 h
Rattus norvegicus [26] = assay: Antihypertensive activity in Wistar rat assessed as mean arterial pressure at 40 mg/kg, ip measured immediately at 0 min (reference value: 194.08 +/- 1.962 mmHg); assay type: functional, Artery; conditions: route intraperitoneal
Rattus norvegicus [27] = assay: Toxicity in anesthetized-normotensive Wistar rat assessed as heart rate at 40 mg/kg, ip after 15 mins (reference value: 313.93 +/- 9.912 bpm); assay type: organism-based; parameters: dose 40 mg/kg, route intraperitoneal; conditions: in vivo, 0.25 h
Rattus norvegicus [28] = assay: Toxicity in anaesthetized-Wistar rat assessed as Q-T ECG interval at 40 mg/kg, ip after 15 mins (reference value: 79.4 +/- 1.270 ms); assay type: organism-based; parameters: dose 40 mg/kg, route intraperitoneal; conditions: in vivo, 0.25 h
Rattus norvegicus [29] = assay: Toxicity in anesthetized-normotensive Wistar rat assessed as heart rate at 40 mg/kg, ip after 30 mins (reference value: 317.68 +/- 7.631 bpm); assay type: organism-based; parameters: dose 40 mg/kg, route intraperitoneal; conditions: in vivo, 0.5 h
Rattus norvegicus [30] = assay: Toxicity in anaesthetized-Wistar rat assessed as P-Q ECG interval at 40 mg/kg, ip after 30 mins (reference value: […] +/- 0.927 ms); assay type: organism-based; parameters: dose 40 mg/kg, route intraperitoneal; conditions: in vivo, 0.5 h
Rattus norvegicus [31] = assay: Toxicity in […] normotensive Wistar rat assessed as mean arterial pressure at 40 mg/kg, ip after 60 mins (reference value: 95.07 +/- 1.973 mmHg); assay type: organism-based, Artery; parameters: dose 40 mg/kg, route intraperitoneal; conditions: in vivo, 1 h
Rattus norvegicus [32] = assay: Toxicity in anaesthetized-Wistar rat assessed as P-Q ECG interval at 40 mg/kg, ip after 15 mins (reference value: 52.2 +/- 1.158 ms); assay type: organism-based; parameters: dose 40 mg/kg, route intraperitoneal; conditions: in vivo, 0.25 h

Compound	Activity (Rattus norvegicus [1]) [bpm]	Activity (Rattus norvegicus [2]) [min]	Activity (Rattus norvegicus [3]) [min]	Activity (Rattus norvegicus [4]) [ms]	Activity (Rattus norvegicus [5]) [ms]	Activity (Rattus norvegicus [6]) [mmHg]	Activity (Rattus norvegicus [7]) [min]	Activity (Rattus norvegicus [8]) [ms]	Activity (Rattus norvegicus [9]) [mmHg]	Activity (Rattus norvegicus [10]) [bpm]	Activity (Rattus norvegicus [11]) [mmHg]	Activity (Rattus norvegicus [12]) [mmHg]	Activity (Rattus norvegicus [13]) [min]	Activity (Rattus norvegicus [14]) [mmHg]	Time (Rattus norvegicus [15]) [s]	Activity (Rattus norvegicus [16]) [min]	Activity (Rattus norvegicus [17]) [min]	Activity (Rattus norvegicus [18]) [ms]	Activity (Rattus norvegicus [19]) [mmHg]	Activity (Rattus norvegicus [20]) [mmHg]	other results
O=C1/C(=C\c2ccccc2)S/C(=N\c2ccccc2)N1CC(O)CN1CCN(C2CCCCC2)CC1 (centres undefined)	294.42	50.6	21.4	51.2	21.9	64.01	20	71.2	151.12	324.13	93.99	185.69	22.8	158.39	944.9	51.3	22.6	72.9	138.63	85.61	Activity (Rattus norvegicus [21]): 77.84 mmHg; Time (Rattus norvegicus [22]): 297.5 s; Activity (Rattus norvegicus [23]): 73.3 min; Activity (Rattus norvegicus [24]): 303.42 bpm; Activity (Rattus norvegicus [25]): 72.8 min; Activity (Rattus norvegicus [26]): 195.99 mmHg; Activity (Rattus norvegicus [27]): 312.65 bpm; Activity (Rattus norvegicus [28]): 72.9 min; Activity (Rattus norvegicus [29]): 289.54 bpm; Activity (Rattus norvegicus [30]): 52.3 min; Activity (Rattus norvegicus [31]): 75.43 mmHg; Activity (Rattus norvegicus [32]): 51.7 min
O=C1/C(=C\c2ccccc2)S/C(=N\c2ccccc2)N1CC(O)CN1CCC(C(O)(c2ccccc2)c2ccccc2)CC1 (centres undefined)	295.73	52.4	23.1	49.8	23.8	64.53	22.4	72.7	139.21	332.05	91.39	176.43	24.2	162.87	1162.1	50.2	22.5	4.49e+06	135.96	76.73	Activity (Rattus norvegicus [21]): 70.26 mmHg; Time (Rattus norvegicus [22]): 323.4 s; Activity (Rattus norvegicus [23]): 74.3 min; Activity (Rattus norvegicus [24]): 302.12 bpm; Activity (Rattus norvegicus [25]): 72.9 min; Activity (Rattus norvegicus [26]): 193.69 mmHg; Activity (Rattus norvegicus [27]): 310.46 bpm; Activity (Rattus norvegicus [28]): 73.4 min; Activity (Rattus norvegicus [29]): 279.31 bpm; Activity (Rattus norvegicus [30]): 51.3 min; Activity (Rattus norvegicus [31]): 71.94 mmHg; Activity (Rattus norvegicus [32]): 50.1 min
